Molecules are shown by their SMILES. ≈ marks a conversion by molar mass, not a printed value. Read-outs that look alike come from different tables or passages of the source. Peptide text beside a SMILES is read from it.

The test system of series [1] is C. neoformans IFM 5844 cells. The series can be described thus: Cell membrane permeability, calcein-AM assay by flow cytometry. It is filed as cell-based, Cryptococcus neoformans. Conditions: half-MIC, 2 h, 30 °C, YNB. The protocol:
The effect of the peptides on the cell membrane permeability of C. neoformans IFM 5844 cells was checked by flow cytometry with calcein-AM assay ([Olson, et al., 2001]). Calcein-acetoxymethyl ester (calcein-AM) is a membrane-permeable live-cell dye that, upon entering the cell, is cleaved by intracellular esterases, converting it into calcein, a membrane-impermeable fluorescent marker. The assay was carried out by suspending a total of 1 × 10^7 cells in 100 µl YNB medium containing 20 µg/mL indomethacin (Sigma-Aldrich, Saint Louis, MO, USA) and incubating them at 30 °C for 30 min to inhibit calcein transporters. Following this pre-treatment, membrane-permeable calcein-AM (Invitrogen, Waltham, MA, USA) was added to a final concentration of 5 µg/mL, and the samples were incubated at 30 °C for 3 h allowing the calcein-AM to enter the cells where esterases converted it to fluorescent calcein. After incubation, cells were washed twice with sterile distilled water and subsequently exposed to peptides at half-MIC concentrations in YNB medium for 2 h at 30 °C. Following peptide treatment, cells were washed twice with sterile distilled water, and fluorescence intensity was measured using a FlowSight® flow cytometer (Amnis-EMD Millipore) equipped with a 488-nm excitation laser. Intact cells stained with calcein-AM but not exposed to peptides served as controls. To ensure statistical reliability, four independent experiments were conducted, and fluorescence intensity was recorded from 10,000 cells per sample during each experiment.

Series [2] deals with J774.2 mouse macrophage cells. The series can be described thus: Cytotoxicity, MTT assay. In kind it is cell-based. Particulars: 25 µM, 3 h, X-VIVO medium; for reduction in macrophage viability: relative to untreated control. As for the experimental part: J774.2 cells were cultured as described previously and seeded into microtiter plates at a density of 5 × 10⁴ cells per well. The cells were incubated at 37 °C under 5 % CO₂ and 95 % relative humidity in X-VIVO™ medium until they adhered to the plate surface. Following attachment, cells were treated with peptides at their respective MIC concentrations in X-VIVO medium for 3 h under the same incubation conditions.
After peptide treatment, cells were washed with PBS (phosphate-buffered saline) and incubated in X-VIVO™ medium supplemented with 0.5 mg/mL MTT reagent (3-[4,5-dimethylthiazol-2-yl]−2,5-diphenyltetrazolium bromide, Merck KGaA, Darmstadt, Germany). The MTT assay was used to evaluate cell viability by staining live cells, leading to the formation of formazan crystals. These crystals were dissolved in dimethyl sulfoxide (DMSO), and absorbance was measured at 570 nm using a SPECTROstar Nano plate reader (BMG LabTech, Offenburg, Germany). The absorbance of untreated control cells was set as 100 % viability, and experimental results were expressed relative to this control. Each experiment was conducted in at least three independent biological replicates to ensure statistical reliability.

Series [3] concerns Cryptococcus neoformans IFM 5844. The series can be described thus: Minimal fungicidal concentration (MFC) determination, spotting on YPD. In kind it is cell-based. Particulars: cultures from MIC assays diluted and spotted onto solid YPD, 30 °C, 48 h. As for the experimental part: Minimal fungicidal concentration (MFC) determination. To assess fungicidal activity, both control and peptide-treated cultures from the MIC assays were diluted 10-fold and 100-fold in sterile distilled water. Five µL from each dilution was then spotted onto solid YPD medium (1 % pepton, 1 % dextrose, 0.5 % yeast extract, 2 % agar). The plates were incubated at 30 °C for 48 h and fungal growth was evaluated. MFC was defined as the lowest peptide concentration at which no visible fungal growth was detected, indicating complete fungicidal activity.

For series [4] the test system is unchanged. The series can be described thus: microbe, parasite or virus in culture. In kind it is cell-based. Particulars: five-fold diluted YNB + 1 % dextrose, 5 × 10^4 cells/mL, 30 °C, 72 h, OD 620 nm, ≥ 90 % growth inhibition, tested 25 to 0.39 µM, three biological replicates; read-out: MIC. The protocol:
(§1) The susceptibility of Cryptococcus neoformans IFM 5844 to 20 peptides (Supplementary Table 1) was tested in a widely used synthetic medium to cultivate yeasts (YNB) and in a serum-free medium what is able to support the proliferation of macrophage cells (X-VIVO).
YNB medium: five-fold diluted Difco Yeast Nitrogen Base w/o Amino Acids medium (Becton, Dickinson and Company, Sparks, MD, USA) supplemented with 1 % dextrose
(§2) The minimal inhibitory concentration (MIC) of each peptide was determined by using micro-dilution assay. The C. neoformans suspensions were adjusted to 5 × 10^4 cells/mL concentration in either YNB or X-VIVO medium. A 96-well microtiter plate was prepared by adding 95 µL suspension per well followed by 5 µL of serially two-fold diluted peptide solutions achieving a final volume of 100 µl. The concentration of the peptides ranged from 25 to 0.39 µM. For control samples, 5 µL pure medium was added to the yeast cell suspension instead of peptides. Plates were incubated at 37 °C for 48 h in X-VIVO medium and 30 °C for 72 h in YNB medium. After incubation, optical density was measured at 620 nm using a SPECTROstar Nano plate reader (BMG LabTech, Offenburg, Germany). […] The experiments were carried out in three independent biological replicates.

A further series deals with C. neoformans cells. The series can be described thus: Effect of X1-NCR247C and calcofluor white on CFU. It is filed as cell-based, Cryptococcus neoformans. Conditions: calcofluor white 2.5 µg/mL alone, 20 min. The protocol: To assess the effect of X1-NCR247C peptide and calcofluor white, C. neoformans cells were subjected to different treatments. […] For staining, cells were treated with calcofluor white at 2.5 µg/mL for the same duration. As a control, cells were incubated only with calcofluor white for 20 min.
For combined treatment, cells were first exposed to calcofluor white (2.5 µg/mL) for 5 min, followed by the addition of X1-NCR247C (0.39 µM), and the incubation continued for 15 additional minutes. Following treatment, cells were washed once with sterile distilled water to remove residual peptide and dye. Serial 10-, 100-, 1000-, and 10,000-fold dilutions were prepared, and 50 µL from each dilution was plated onto solid YPD medium in triplicate. After 48 h of incubation at 30 °C, colony-forming units were counted to determine cell viability under each condition.

For series [5], the system named is Cryptococcus neoformans IFM 5844. It is filed as cell-based. Conditions: half-diluted X-VIVO 15 medium, 37 °C, 48 h, OD 620 nm, ≥ 90 % growth inhibition, tested 25 to 0.39 µM, three biological replicates. The protocol:
as §1
X-VIVO medium: half-diluted X-VIVO™ 15 cell culture medium (Lonza, Verviers, Belgium).
as §2

With `CC[C@H](C)[C@H](NC(=O)[C@@H]1CCCN1C(=O)[C@@H](NC(=O)[C@H](CS)NC(=O)[C@H](Cc1ccc(O)cc1)NC(=O)[C@H](CO)NC(=O)[C@H](CCCCN)NC(=O)[C@H](CCCNC(=N)N)NC(=O)[C@H](CS)NC(=O)[C@H](CCCNC(=N)N)NC(=O)[C@@H](NC(=O)[C@H](CC(N)=O)NC(=O)[C@H](C)NC(=O)[C@H](CCCNC(=N)N)NC(=O)[C@H](CCCNC(=N)N)NC(=O)[C@H](CC(C)C)NC(=O)[C@@H](N)CCCCN)C(C)C)C(C)C)C(N)=O` [NCR335C17–33] (H-KLRRANVRCRKSYCVPI-NH2; N-terminus assumed), the “calcein leakage / membrane permeability disruption” value in series [1] is “highest calcein leakage”. In addition, in series [2], the “reduction in macrophage viability” value amounted to 15%. In series [3], the “fungistatic or fungicide mode of action” value is “fungicidal effect”.
As for `CC[C@H](C)[C@H](NC(=O)[C@H](CS)NC(=O)CNC(=O)[C@H](CC(N)=O)NC(=O)[C@@H](N)CCCNC(=N)N)C(=O)N[C@H](C(=O)N[C@@H](CC(=O)O)C(=O)N1CCC[C@H]1C(=O)N[C@@H](CCCNC(=N)N)C(=O)N[C@@H](CS)C(=O)N1CCC[C@H]1C(=O)N[C@@H](Cc1ccc(O)cc1)C(=O)N[C@@H](CCC(N)=O)C(=O)N[C@@H](CCC(N)=O)C(=O)N[C@@H](CS)C(=O)N[C@@H](CCCNC(=N)N)C(=O)N[C@@H](CCCNC(=N)N)C(=O)N1CCC[C@H]1C(=O)N[C@@H](CC(C)C)C(=O)N[C@@H](Cc1ccc(O)cc1)C(=O)N[C@@H](CS)C(=O)N[C@@H](CCCNC(=N)N)C(=O)N[C@@H](CCCNC(=N)N)C(=O)N[C@@H](CCCNC(=N)N)C(N)=O)C(C)C` [NCR247] (H-RNGCIVDPRCPYQQCRRPLYCRRR-NH2; N-terminus assumed), the “reduction in macrophage viability” value in series [2] was 25%. For the same molecule, in series [3], the “fungistatic or fungicide mode of action” value is “fungicidal effect”.
Consider `CC[C@H](C)[C@H](NC(=O)[C@H](CCCCN)NC(=O)[C@H](CCCCN)NC(=O)[C@H](C)NC(=O)[C@H](CC(C)C)NC(=O)[C@H](C)NC(=O)[C@H](C)NC(=O)[C@H](CC(C)C)NC(=O)[C@H](C)NC(=O)[C@H](CCCCN)NC(=O)[C@H](CC(C)C)NC(=O)[C@H](CC(N)=O)NC(=O)[C@@H](NC(=O)[C@H](CCCCN)NC(=O)CNC(=O)[C@H](CC(C)C)NC(=O)[C@H](CC(C)C)NC(=O)[C@H](Cc1ccc(O)cc1)NC(=O)CNC(=O)[C@H](C)N)[C@@H](C)CC)C(=O)N[C@@H](CC(C)C)C(N)=O` [TP10, reference compound], for which the MIC in series [4] stood at 12.5 µM. In series [2] (p ≤ 0.01), the “macrophage viability compared to untreated control” value is on record as “significantly reduced macrophage viability”.
With `O=S(=O)(O)c1cc(Nc2nc(Nc3ccccc3)nc(N(CCO)CCO)n2)ccc1/C=C/c1ccc(Nc2nc(Nc3ccccc3)nc(N(CCO)CCO)n2)cc1S(=O)(=O)O` [calcofluor white, reference compound], in the series with C. neoformans cells, the “effect on CFU counts” value was “did not reduce CFU counts”.
As to `CC[C@H](C)[C@H](NC(=O)[C@H](CCCCN)NC(=O)[C@H](CCCCN)NC(=O)[C@H](C)NC(=O)[C@H](CC(C)C)NC(=O)[C@H](C)NC(=O)[C@H](C)NC(=O)[C@H](CC(C)C)NC(=O)[C@H](C)NC(=O)[C@H](CCCCN)NC(=O)[C@H](CCCNC(=N)N)NC(=O)[C@H](CCCNC(=N)N)NC(=O)[C@H](CCCNC(=N)N)NC(=O)[C@H](CS)NC(=O)[C@H](Cc1ccc(O)cc1)NC(=O)[C@H](CC(C)C)NC(=O)[C@@H]1CCCN1C(=O)[C@H](CCCNC(=N)N)NC(=O)[C@H](CCCNC(=N)N)NC(=O)[C@H](CS)NC(=O)[C@H](CCC(N)=O)NC(=O)[C@@H](N)CCC(N)=O)C(=O)N[C@@H](CC(C)C)C(N)=O` [NCR247C-X2] (H-QQCRRPLYCRRRKALAALAKKIL-NH2; N-terminus assumed), the “calcein leakage / membrane permeability disruption” value in series [1] is “highest calcein leakage”. For the same molecule, in series [1] (stained untreated control 75 %, four independent experiments), the “proportion of calcein-stained cells” value is 8%. The MIC in series [4] is on record as 0.78 µM; in series [5], 1.56 µM (≈ 4.3 µg/mL). In series [3], the “fungistatic or fungicide mode of action” value is recorded as “fungicidal effect”.
Take `CC[C@H](C)[C@H](NC(=O)[C@H](CCCCN)NC(=O)[C@H](CCCCN)NC(=O)[C@H](C)NC(=O)[C@H](CC(C)C)NC(=O)[C@H](C)NC(=O)[C@H](C)NC(=O)[C@H](CC(C)C)NC(=O)[C@H](C)NC(=O)[C@@H](N)CCCCN)C(=O)N[C@@H](CC(C)C)C(=O)N[C@@H](CCC(N)=O)C(=O)N[C@@H](CCC(N)=O)C(=O)N[C@@H](CS)C(=O)N[C@@H](CCCNC(=N)N)C(=O)N[C@@H](CCCNC(=N)N)C(=O)N1CCC[C@H]1C(=O)N[C@@H](CC(C)C)C(=O)N[C@@H](Cc1ccc(O)cc1)C(=O)N[C@@H](CS)C(=O)N[C@@H](CCCNC(=N)N)C(=O)N[C@@H](CCCNC(=N)N)C(=O)N[C@@H](CCCNC(=N)N)C(N)=O` [X2-NCR247C] (H-KALAALAKKILQQCRRPLYCRRR-NH2; N-terminus assumed): the “calcein leakage / membrane permeability disruption” value in series [1] is listed as “highest calcein leakage”. Besides, the MIC turned out to be 0.78 µM in series [4] and 3.12 µM (≈ 8.6 µg/mL) in series [5]. In addition, the “fungistatic or fungicide mode of action” value in series [3] is “fungicidal effect”.

The record behind these values is article PMC12164026, “Plant-derived nodule-specific cysteine-rich peptides as potent antifungal agents against Cryptococcus neoformans: mechanisms of action, chimeric peptide enhancement, and immunomodulatory effects” (Current Research in Microbial Sciences, 2025).
